Assay results reported in PMC4154066 (Chemical research in toxicology, 2013).
Read-outs that look alike come from different tables or passages of the source.

What was measured:
HepG2 cells [1] = assay: Oxygen consumption rate; format: cell-based, Human; details: for Relative percentage OCR 30 Sec: HepG2, 30 sec after compound at its MMP IC50; for Relative percentage OCR 30 Sec / Relative percentage OCR 1 h: basal OCR = 100%, mean ± SD; for Relative percentage OCR 1 h: HepG2, 1 h after compound at its MMP IC50
HepG2 cells [2] = details: HepG2, 40 h; cited from earlier work
HepG2 cells [3] = assay: cells; format: cell-based, Human; details: for Compound potency (IC50) LDH Release 5 h: HepG2, 5 h treatment
[4] = system: mitochondrial membrane potential in HepG2 cells; assay: qHTS MMP assay, primary screen; format: cell-based, Human; details: Homo sapiens
[5] = HepG2, compound at its MMP IC50, 30 sec and 1 h, then FCCP
[6] = HepG2, 1 h treatment, mean ± SD, 3 independent experiments
[7] = mean ± SD, 3 independent experiments
[8] = Homo sapiens, HepG2, 1 h, read-out: Compound potency (IC50) LDH Release 1 h
[9] = Homo sapiens, HepG2, 5 h, read-out: Compound potency (IC50) LDH Release 5 h
[10] = read-out: Compound potency (IC50) LDH Release 1 h, HepG2, 1 h treatment, mean ± SD, 3 independent experiments

Nc1cccc2c(N)cccc12 [1,5-Naphthalenediamine]
Relative percentage OCR 30 Sec (HepG2 cells [1]): 104.68 ± 1.3% | Relative percentage OCR 1 h (HepG2 cells [1]): 115.87 ± 0.7%

O=C1c2c(O)ccc([N+](=O)[O-])c2C(=O)c2c([N+](=O)[O-])ccc(O)c21 [1,8-Dihydroxy-4,5-dinitroanthraquinone]
Relative percentage OCR 30 Sec (HepG2 cells [1]): 144.03 ± 7.3% | Relative percentage OCR 1 h (HepG2 cells [1]): 150.09 ± 1.27% | Effect on OCR / FCCP-uncoupled OCR (in words) (HepG2 cells [1]; [5]): acted as uncouplers | cytotoxicity at 40 h (HepG2 cells [2]): cytotoxic

Oc1ccc(Cl)cc1Cc1cc(Cl)ccc1O [2,2'-Methylenebis-(4-chlorophenol)]
Relative percentage OCR 30 Sec (HepG2 cells [1]): 170.42 ± 33.35% | Relative percentage OCR 1 h (HepG2 cells [1]): 168.27 ± 1.85%

Oc1ccc(Cl)cc1Sc1cc(Cl)ccc1O [2,2'-Thiobis(4-chlorophenol)]
Relative percentage OCR 30 Sec (HepG2 cells [1]): 273.19 ± 70.36% | Relative percentage OCR 1 h (HepG2 cells [1]): 191.27 ± 0.92%

Nc1ccc2c(c1)C(=O)c1ccccc1C2=O [2-Aminoanthraquinone]
Relative percentage OCR 30 Sec (HepG2 cells [1]): 97.54 ± 0.63% | Relative percentage OCR 1 h (HepG2 cells [1]): 106.44 ± 0.61%

Oc1cc(Cl)c(Cl)c(Cl)c1 [3,4,5-Trichlorophenol]
Relative percentage OCR 30 Sec (HepG2 cells [1]): 163.21 ± 18.34% | Relative percentage OCR 1 h (HepG2 cells [1]): 173.49 ± 1.32%

O=C=Nc1ccc(Cl)c(Cl)c1 [3,4-Dichlorophenyl isocyanate]
Relative percentage OCR 30 Sec (HepG2 cells [1]): 102.45 ± 10.76% | Relative percentage OCR 1 h (HepG2 cells [1]): 236.03 ± 4.84%

Cc1cc(O)c(C(C)(C)C)cc1Sc1cc(C(C)(C)C)c(O)cc1C [4,4-Thiobis(6-t-butyl-m-cresol)]
Relative percentage OCR 30 Sec (HepG2 cells [1]): 106.32 ± 4% | Relative percentage OCR 1 h (HepG2 cells [1]): 127.15 ± 1.52% | Compound potency (IC50) LDH Release 1 h (HepG2 cells [3]; [6]): Inactive | Compound potency (IC50) LDH Release 5 h (HepG2 cells [3]; [7]): Inconclusive

CC(C)(c1ccccc1)c1ccc(O)cc1 [4-Cumylphenol]
Relative percentage OCR 30 Sec (HepG2 cells [1]): 111.24 ± 4.51% | Relative percentage OCR 1 h (HepG2 cells [1]): 121.31 ± 0.33%

CC1=C(/C=C/C(C)=C/C=C/C(C)=C/C(=O)Nc2ccc(O)cc2)C(C)(C)CCC1 [4-Hydroxyphenyl retinamide]
Relative percentage OCR 30 Sec (HepG2 cells [1]): 96.31 ± 1.42% | Relative percentage OCR 1 h (HepG2 cells [1]): 98.83 ± 0.42% | Effect on OCR / FCCP-uncoupled OCR (in words) (HepG2 cells [1]; [5]): significantly suppressed the FCCP uncoupled rates

O=c1cc(-c2ccc(O)cc2)oc2cc(O)cc(O)c12 [Apigenin]
Relative percentage OCR 30 Sec (HepG2 cells [1]): 99.69 ± 1.13% | Relative percentage OCR 1 h (HepG2 cells [1]): 107.51 ± 0.16% | Effect on OCR / FCCP-uncoupled OCR (in words) (HepG2 cells [1]; [5]): did not affect the OCR or the FCCP-uncoupled OCR | cytotoxicity at 40 h (HepG2 cells [2]): the only exception

O=C1C2CC=CCC2C(=O)N1SC(Cl)(Cl)Cl (stereo not shown) [Captan]
Relative percentage OCR 30 Sec (HepG2 cells [1]): 110.37 ± 7.97% | Relative percentage OCR 1 h (HepG2 cells [1]): 128.41 ± 0.77%

COc1cc(/C=C/C(=O)CC(=O)/C=C/c2ccc(O)c(OC)c2)ccc1O [Curcumin]
Relative percentage OCR 30 Sec (HepG2 cells [1]): 86 ± 3.54% | Relative percentage OCR 1 h (HepG2 cells [1]): 94.85 ± 0.67% | Effect on OCR / FCCP-uncoupled OCR (in words) (HepG2 cells [1]; [5]): significantly suppressed the FCCP uncoupled rates

CC/C(=C(/CC)c1ccc(O)cc1)c1ccc(O)cc1 [Diethylstilbestrol [DES], Diethylstilbestrol, reference compound]
Effect on OCR / FCCP-uncoupled OCR (in words) (HepG2 cells [1]): depressed both basal and FCCP uncoupled rates

C[C@@H]1CC[C@@]2(OC1)O[C@H]1[C@@H](O)[C@H]3[C@@H]4CC[C@H]5C[C@@H](O[C@@H]6O[C@H](CO)[C@H](O[C@@H]7O[C@H](CO)[C@@H](O)[C@H](O[C@@H]8OC[C@@H](O)[C@H](O)[C@H]8O)[C@H]7O[C@@H]7O[C@H](CO)[C@H](O)[C@H](O[C@@H]8O[C@H](CO)[C@@H](O)[C@H](O)[C@H]8O)[C@H]7O)[C@H](O)[C@H]6O)[C@H](O)C[C@]5(C)[C@H]4CC[C@]3(C)[C@H]1[C@@H]2C [Digitonin]
Relative percentage OCR 30 Sec (HepG2 cells [1]): 57.25 ± 6.4% | Relative percentage OCR 1 h (HepG2 cells [1]): 54.89 ± 0.48% | Effect on OCR / FCCP-uncoupled OCR (in words) (HepG2 cells [1]; [5]): depressed both basal and FCCP uncoupled rates | IC50 (HepG2 cells [3]; [8]): 45.1 ± 8.43 µM | IC50 (HepG2 cells [3]; [9]): 45.1 ± 8.43 µM

O=C(Nc1ccccc1)Nc1ccccc1 [Diphenylurea]
Relative percentage OCR 30 Sec (HepG2 cells [1]): 97.02 ± 4.18% | Relative percentage OCR 1 h (HepG2 cells [1]): 143.97 ± 1.85%

Cc1cc(O)c2c(c1)C(=O)c1cc(O)cc(O)c1C2=O [Emodin]
Relative percentage OCR 30 Sec (HepG2 cells [1]): 235.59 ± 56.54% | Relative percentage OCR 1 h (HepG2 cells [1]): 210.48 ± 1.83% | Effect on OCR / FCCP-uncoupled OCR (in words) (HepG2 cells [1]; [5]): acted as uncouplers | cytotoxicity at 40 h (HepG2 cells [2]): cytotoxic

N#CC(C#N)=NNc1ccc(OC(F)(F)F)cc1 [FCCP, Carbonyl cyanide 4-(trifluoromethoxy)phenylhydrazone, reference compound]
IC50 ([4]; HepG2, 1 h, read-out: mean IC50 of positive control, 1 h): 0.81 ± 0.2 µM | IC50 ([4]; HepG2, 5 h, read-out: mean IC50 of positive control, 5 h): 1.28 ± 0.32 µM

CN(C)c1ccc(N=NS(=O)(=O)O)cc1 [Formulated fenaminosulf (Dexon), fenaminosulf]
Relative percentage OCR 30 Sec (HepG2 cells [1]): 102.48 ± 0.9% | Relative percentage OCR 1 h (HepG2 cells [1]): 110.45 ± 0.28%

O=c1c(-c2ccc(O)cc2)coc2cc(O)cc(O)c12 [Genistein (4',5,7-Trihydroxyisoflavone), 4',5,7-Trihydroxyisoflavone]
Relative percentage OCR 30 Sec (HepG2 cells [1]): 90.18 ± 3.05% | Relative percentage OCR 1 h (HepG2 cells [1]): 105.21 ± 0.19%

Oc1c(Cl)cc(Cl)c(Cl)c1Cc1c(O)c(Cl)cc(Cl)c1Cl [Hexachlorophene]
Relative percentage OCR 30 Sec (HepG2 cells [1]): 201.72 ± 51.19% | Relative percentage OCR 1 h (HepG2 cells [1]): 175.25 ± 1.35%

O=c1c(O)c(-c2ccc(O)cc2)oc2cc(O)cc(O)c12 [Kaempferol]
Relative percentage OCR 30 Sec (HepG2 cells [1]): 118.63 ± 4.29% | Relative percentage OCR 1 h (HepG2 cells [1]): 138.85 ± 1.28% | Effect on OCR / FCCP-uncoupled OCR (in words) (HepG2 cells [1]; [5]): acted as an uncoupler | Compound potency (IC50) LDH Release 1 h (HepG2 cells [3]; [6]): Inactive | Compound potency (IC50) LDH Release 5 h (HepG2 cells [3]; [7]): Inconclusive

O=C1C2(Cl)C3(Cl)C4(Cl)C(Cl)(Cl)C5(Cl)C3(Cl)C1(Cl)C5(Cl)C24Cl (stereo not shown) [Kepone]
Relative percentage OCR 30 Sec (HepG2 cells [1]): 139.53 ± 5.8% | Relative percentage OCR 1 h (HepG2 cells [1]): 140.71 ± 0.96% | IC50 (HepG2 cells [3]; [8]): 49.1 ± 12.3 µM | IC50 (HepG2 cells [3]; [9]): 58.4 ± 3.95 µM

c1ccc(Nc2ccc3ccccc3c2)cc1 [N-Phenyl-2-naphthylamine]
Relative percentage OCR 30 Sec (HepG2 cells [1]): 103.45 ± 2.35% | Relative percentage OCR 1 h (HepG2 cells [1]): 120.42 ± 0.94%

CC(=O)Oc1ccccc1C(=O)Nc1ncc([N+](=O)[O-])s1 [Nitazoxanide, reference compound]
Relative percentage OCR 30 Sec (HepG2 cells [1]): 277.15 ± 15.64% | Relative percentage OCR 1 h (HepG2 cells [1]): 199.34 ± 2.37%

COC(=O)Nc1cccc(OC(=O)Nc2cccc(C)c2)c1 [Phenmedipham]
Relative percentage OCR 30 Sec (HepG2 cells [1]): 105.47 ± 2.71% | Relative percentage OCR 1 h (HepG2 cells [1]): 130.87 ± 1.18% | Compound potency (IC50) LDH Release 1 h (HepG2 cells [3]; [6]): Inactive | Potency for cytotoxicity (LDH) compared with MMP decrease, 5 h (HepG2 cells [3]; HepG2, 5 h): more potent for cytotoxicity than for MMP disruption | Compound potency (IC50) LDH Release 5 h (HepG2 cells [3]; [7]): Inconclusive

CC(=O)[O][Hg][c]1ccccc1 [Phenyl mercuric acetate]
Relative percentage OCR 30 Sec (HepG2 cells [1]): 67.6 ± 5.55% | Relative percentage OCR 1 h (HepG2 cells [1]): 51.54 ± 0.26% | Effect on OCR / FCCP-uncoupled OCR (in words) (HepG2 cells [1]; [5]): depressed both basal and FCCP uncoupled rates | IC50 (HepG2 cells [3]; [10]): 68.1 ± 4.44 µM

Oc1ccc(/C=C/c2cc(O)cc(O)c2)cc1 [Resveratrol]
Relative percentage OCR 30 Sec (HepG2 cells [1]): 100.5 ± 0.73% | Relative percentage OCR 1 h (HepG2 cells [1]): 110.92 ± 0.36%

Cc1cc2nc3c(=O)[nH]c(=O)nc-3n(C[C@H](O)[C@H](O)[C@H](O)CO)c2cc1C [Riboflavin]
Relative percentage OCR 30 Sec (HepG2 cells [1]): 103.69 ± 0.37% | Relative percentage OCR 1 h (HepG2 cells [1]): 115.15 ± 0.4%

C[C@H]1CCCC(=O)CCC/C=C/c2cc(O)cc(O)c2C(=O)O1 [Zearalenone]
Relative percentage OCR 30 Sec (HepG2 cells [1]): 77.68 ± 2.39% | Relative percentage OCR 1 h (HepG2 cells [1]): 109.62 ± 0.57% | Effect on OCR / FCCP-uncoupled OCR (in words) (HepG2 cells [1]; [5]): depressed both basal and FCCP uncoupled rates

Clc1ccc(C(c2ccccc2Cl)C(Cl)Cl)cc1 (stereo not shown) [o,p'-DDD (Mitotane), 1,1-dichloro-2-(o-chlorophenyl)-2-(p-chlorophenyl) ethane, reference compound]
Relative percentage OCR 30 Sec (HepG2 cells [1]): 102.84 ± 1.36% | Relative percentage OCR 1 h (HepG2 cells [1]): 114.22 ± 0.42%

Oc1ccc(Cl)cc1Cc1ccccc1 [o-Benzyl-p-chlorophenol]
Relative percentage OCR 30 Sec (HepG2 cells [1]): 123.51 ± 12.67% | Relative percentage OCR 1 h (HepG2 cells [1]): 126.12 ± 0.47%

CCCCCCCCCc1ccc(O)cc1 [p -n -Nonylphenol]
Relative percentage OCR 30 Sec (HepG2 cells [1]): 116.61 ± 6.28% | Relative percentage OCR 1 h (HepG2 cells [1]): 131.32 ± 0.61%

Nc1ccc(O)cc1 [p-Aminophenol]
Relative percentage OCR 30 Sec (HepG2 cells [1]): 100.52 ± 5.81% | Relative percentage OCR 1 h (HepG2 cells [1]): 158.18 ± 3.31%

CCCCCCCC[N+](CCCCCCCC)(CCCCCCCC)CCCCCCCC.[Br-] [tetra-N-Octylammonium bromide]
Relative percentage OCR 30 Sec (HepG2 cells [1]): 122.56 ± 40.61% | Relative percentage OCR 1 h (HepG2 cells [1]): 215.53 ± 1.14% | IC50 (HepG2 cells [3]; [10]): 35.4 ± 12.6 µM
